The structures appear in SMILES notation.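 96-well plates; 48 h exposure; 5 concentrations. Endpoints by linear interpolation between flanking doses. Not reached: highest tested concentration assigned. GI50 marks 50% less growth. The concentration for full growth arrest is given as TGI.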

Some test systems named below: T-47D breast; MOLT-4 leukemia; SNB-75 CNS; UACC-62 melanoma; RPMI-8226 leukemia; SK-MEL-2 melanoma; UO-31 renal; DU-145 prostate; NCI-H522 lung; BT-549 breast.
Assay in all cases: NCI tumour cell line growth inhibition, 48 h

Turning to `CC(C(=O)NCCNC(=O)CCC(=O)N(C)O)C(=O)NCCNC(=O)CCC(=O)N(C)O`, the TGI in the test on T-47D breast, with MOLT-4 leukemia, in the test with SNB-75 CNS, in the test on UACC-62 melanoma, in the test on RPMI-8226 leukemia and in the test on SK-MEL-2 melanoma was > 100 µM each time. The TGI in the test on UO-31 renal, in the test on DU-145 prostate and in the test on NCI-H522 lung was > 100 µM throughout.
For the molecule `COC(=O)[C@@H]1[C@H](O)CCC2=C(CC(=O)c3ccoc3)[C@H](C)CC[C@]21C`, the TGI in the test with SNB-75 CNS, in the test on UACC-62 melanoma, with SK-MEL-2 melanoma, in the test on UO-31 renal and in the test with BT-549 breast was > 50 µM throughout.
Take `CCNC(=O)NNc1ncnc2c1c(-c1ccc(Cl)cc1)cn2-c1ccc(C)cc1`: the TGI in the test on T-47D breast is 49.6 µM; in the test with MOLT-4 leukemia it was 45.4 µM; in the test with SNB-75 CNS it was 38.9 µM; with UACC-62 melanoma it was 33.3 µM; in the test on SK-MEL-2 melanoma, 42.2 µM; in the test on UO-31 renal, 28.3 µM. Further, the TGI in the test on DU-145 prostate is 44.9 µM; in the test on NCI-H522 lung, 38.3 µM.
As to `C=C1C(=O)[C@]23C[C@H]1C[C@@H](O)[C@H]2[C@]1(COC3=O)[C@@H](OC(C)=O)CC[C@@](C)(COC(C)=O)[C@H]1C=O`, the TGI in the test on T-47D breast is 25.4 µM; with MOLT-4 leukemia it was 18.2 µM; with SNB-75 CNS, > 50 µM; in the test on UACC-62 melanoma, > 50 µM; in the test on SK-MEL-2 melanoma it was > 50 µM; in the test on UO-31 renal it was > 50 µM. Besides, the TGI in the test with BT-549 breast is > 50 µM; in the test on DU-145 prostate, > 50 µM; in the test with NCI-H522 lung it was 14.6 µM.
With `C=CCNc1nc(O)c(/C=C2\C=Nc3ncccc32)s1`, the GI50 in the test on T-47D breast was 2.27 µM; with MOLT-4 leukemia, 2.64 µM; with SNB-75 CNS, 1.51 µM; in the test with UACC-62 melanoma it was 1.69 µM; in the test with RPMI-8226 leukemia it was 2.26 µM; in the test with SK-MEL-2 melanoma, 2.23 µM. The GI50 in the test with UO-31 renal was 3.36 µM; with DU-145 prostate, 2.21 µM; in the test on NCI-H522 lung it was 0.725 µM. Moreover, the TGI in the test with T-47D breast was determined as 7.38 µM; in the test with MOLT-4 leukemia, 7.95 µM; in the test with SNB-75 CNS, 2.96 µM; with UACC-62 melanoma it was 4.22 µM; in the test with RPMI-8226 leukemia, 6.71 µM; in the test on SK-MEL-2 melanoma, 5.09 µM. Besides, the values for the TGI in the test with UO-31 renal, in the test with DU-145 prostate and with NCI-H522 lung were > 100 µM, 21.6 µM and 4.85 µM, respectively.
`CCCCOc1c(C(=O)O)cc(Br)cc1C(=O)O`: the TGI in the test on T-47D breast, with MOLT-4 leukemia, in the test on SNB-75 CNS, in the test with RPMI-8226 leukemia, with SK-MEL-2 melanoma and in the test on UO-31 renal was > 100 µM in each case. Moreover, the TGI in the test with BT-549 breast and with NCI-H522 lung was > 100 µM each time.
`Cc1nc(N)sc1C(=O)Nc1ncn[nH]1`: the TGI in the test on T-47D breast, in the test with MOLT-4 leukemia, with UACC-62 melanoma, with RPMI-8226 leukemia, in the test on SK-MEL-2 melanoma and with UO-31 renal was > 100 µM each time. The TGI with BT-549 breast, in the test with DU-145 prostate and in the test with NCI-H522 lung was > 100 µM throughout.
Take `O=C(N/N=C\c1cccs1)c1ccncc1`: the TGI in the test with T-47D breast, with MOLT-4 leukemia, in the test with SNB-75 CNS, in the test on UACC-62 melanoma, with RPMI-8226 leukemia and in the test with SK-MEL-2 melanoma was > 100 µM each time. Moreover, the TGI with UO-31 renal, in the test with BT-549 breast and in the test with NCI-H522 lung was > 100 µM throughout.
Turning to `COC(=O)CCCC1(CCCC(=O)OC)CCCCCCCCC(CCCC(=O)OC)(CCCC(=O)OC)C(=O)C1=O`, the TGI in the test with T-47D breast is > 100 µM; in the test with SNB-75 CNS, 88.7 µM; with UACC-62 melanoma, 39.5 µM; in the test on RPMI-8226 leukemia it was > 100 µM; in the test on SK-MEL-2 melanoma, 70.5 µM; in the test with UO-31 renal it was 0.3 µM. In addition, the TGI in the test with DU-145 prostate was > 100 µM; in the test on NCI-H522 lung, 5.38 µM.
For the molecule `N#C/C=c1/c2ccccc2n2nc3ccccc3c12`, the TGI with T-47D breast, in the test on UACC-62 melanoma, in the test with RPMI-8226 leukemia, in the test on SK-MEL-2 melanoma, in the test on UO-31 renal and with BT-549 breast was > 100 µM throughout. Further, the TGI with DU-145 prostate was > 100 µM; in the test with NCI-H522 lung it was 38 µM.
Consider `Cn1cc(-c2nc(-c3c[nH]c4ccncc34)cs2)c2ccccc21`, for which the GI50 is 1.29 µM with SNB-75 CNS; 1.69 µM with UACC-62 melanoma; 1.8 µM in the test with SK-MEL-2 melanoma; 1.38 µM in the test with UO-31 renal; 9 µM in the test on BT-549 breast; 1.74 µM in the test with DU-145 prostate. Also, the TGI with SNB-75 CNS was determined as 2.61 µM; in the test with UACC-62 melanoma, 3.11 µM; with SK-MEL-2 melanoma it was 3.51 µM; in the test with UO-31 renal it was 2.69 µM; in the test with BT-549 breast, 35.5 µM; in the test on DU-145 prostate, 3.15 µM.
With `C=CC(C)(C)C1(CC(OC)OC)C(=O)N(C)c2ccccc21` (configuration not stated), the TGI in the test on T-47D breast, in the test on SNB-75 CNS, in the test on UACC-62 melanoma, in the test on RPMI-8226 leukemia, in the test with SK-MEL-2 melanoma and with UO-31 renal was > 25 µM throughout. Moreover, the TGI with DU-145 prostate was > 25 µM.
Regarding `C[C@]12C(=O)C=CCC1=CC[C@@H]1[C@@H]2[C@H]2CC3(O)C(=O)O[C@@]4(C)[C@H]5C[C@@]6(C)[C@@H]7[C@@]2(O)[C@]1(OC[C@H]6C(=O)O5)O[C@]734` (some centres not stated), the TGI was 90.3 µM in the test with MOLT-4 leukemia; > 100 µM in the test with SNB-75 CNS; > 100 µM in the test on UACC-62 melanoma; > 100 µM with RPMI-8226 leukemia; > 100 µM in the test on SK-MEL-2 melanoma; > 100 µM with UO-31 renal. Further, the TGI in the test with DU-145 prostate is > 100 µM; in the test on NCI-H522 lung, 46.2 µM.
In the case of `Cc1ccc(/C(O)=C/c2nc3cccnc3[nH]c2=O)cc1`, the TGI with T-47D breast, in the test on MOLT-4 leukemia, in the test on UACC-62 melanoma, with RPMI-8226 leukemia, in the test on SK-MEL-2 melanoma and in the test on UO-31 renal was > 100 µM throughout. For the same molecule, the TGI in the test on BT-549 breast, with DU-145 prostate and in the test on NCI-H522 lung was > 100 µM in each case.

The record behind these values is PubChem BioAssay (NCI).
